{"source": "patent US20150045432A1", "about": "“DIETARY SUPPLEMENT COMPRISING AMINO ACIDS IN A PALATABLE LIQUID FORMULATION THAT PROMOTES RESTFUL SLEEP, RECOVERY FROM STRESS AND EXERCISE AND STRENGTHENS THE IMMUNE SYSTEM” (North Health Essentials, LLC, priority 2013, published 2015)", "origin": "cited, not measured here", "key": {"[1]": {"conditions": "3 grams of glycine, bolus before bedtime"}, "[2]": {"conditions": "taken within an hour before going to bed, versus those who did not take the amino acid"}, "[3]": {"conditions": "rats"}, "[4]": {"conditions": "after 60 minutes of administration, compared to water or L-threonine"}}}
{"compound": "NCCCC(=O)O", "note": "[GABA, gamma-aminobutyric acid]", "values": [{"measurement": "alpha waves", "setting": "[4]", "result": "significantly increases alpha waves"}, {"measurement": "beta waves", "setting": "[4]", "result": "decreases beta waves"}, {"measurement": "immunity under stress conditions", "setting": "in vivo", "result": "could enhance immunity"}, {"measurement": "time after administration within which relaxant effects could be seen", "setting": "induce relaxation and diminish anxiety", "result": "≤ 1", "unit": "h"}]}
{"compound": "NCC(=O)O", "note": "[glycine]", "values": [{"measurement": "daytime sleepiness", "setting": "[1]", "result": "lessened daytime sleepiness"}, {"measurement": "sleep quality and efficacy", "setting": "[1]", "result": "improved sleep quality and efficacy"}, {"measurement": "brainwave patterns of non-REM sleep and sleep length", "setting": "[2]", "result": "showed brainwave patterns associated with non-REM sleep sooner and slept longer"}, {"measurement": "distribution in the brain", "setting": "[3]", "result": "accumulates in the pineal gland"}]}
